# In patent US7491794B2, “Macrocyclic compounds as inhibitors of viral replication” (Intermune, Inc., priority 2003, dated 2009):
# Structures can show the parent of a compound that is named as a salt.
# Target: T1, NS3-NS4A protease (Hepatitis C virus genotype 1a, UniProt P27958)
# T1 construct: Recombinant E. coli or Baculovirus full-length NS3 was diluted to 3.33 μM with assay buffer; made in house; host or cells: E. coli or baculovirus (BV) system
# Experiment: NS3-NS4A protease assay (NS3 inhibition assay, RETS1 substrate), Section B
# Assay type: biochemical
# Conditions: not given
# Protocol: NS3 complex formation with NS4A-2
# Recombinant E. coli or Baculovirus full-length NS3 was diluted to 3.33 μM with assay buffer and the material transferred to an eppendorf tube and place in water bath in 4° C. refrigerator. The appropriate amount of NS4A-2 to 8.3 mM in assay buffer was added to equal the volume of NS3 in step 2.1.1 (conversion factor −3.8 mg/272 μL assay buffer). The material was transferred to an eppendorf tube and placed in a water bath in a 4° C. refrigerator.
# After equilibration to 4° C., equal volumes of NS3 and NS4A-2 solutions were combined in an eppendorf tube, mixed gently with a manual pipettor, and the mixture incubated for 15 minutes in the 4° C. water bath. Final concentrations in the mixture were 1.67 μM NS3, 4.15 mM NS4A-2 (2485-fold molar excess NS4A-2).
# After 15 minutes at 4° C., the NS3/NS4A-2 eppendorf tube was removed and placed in a room temperature water bath for 10 minutes. NS3/NS4A-2 was aliquoted at appropriate volumes and store at −80° C. (E. coli NS3 run at 2 nM in assay, aliquot at 25 μL. BV NS3 run at 3 nM in assay, aliquot at 30 μL.
# Step 2.2.5. Sample compounds were dissolved to 10 mM in DMSO then diluted to 2.5 mM (1:4) in DMSO.
# Step 2.2.6. The E. coli NS3/NS4A-2 was diluted to 4 nM NS3 (1:417.5 of 1.67 μM stock−18 μL 1.67 μM stock+7497 μL assay buffer).
# The BV NS3/NS4A-2 was diluted to 6 nM NS3 (1:278.3 of 1.67 μM stock−24 μL 1.67 μM stock+6655 μL assay buffer).
# Step 2.2.7. Using the manual multichannel pipettor, and being careful not to introduce bubbles into the plate, 50 μL assay buffer was added to wells A01-H01 of a black Costar 96-well polypropylene storage plate.
# Step 2.2.8. Using the manual multichannel pipettor, and being careful not to introduce bubbles into the plate, 50 μL of diluted NS3/NS4A-2 from step 2.2.6 was added to wells A02-H12 of plate in step 2.2.7.
# Step 2.2.9. Using the manual multichannel pipettor, and being careful not to introduce bubbles into the plate, 25 μL of the wells in drug dilution plate in step 2.2.5 were transferred to corresponding wells in assay plate in step 2.2.8. The tips on multichannel pipettor were changed for each row of compounds transferred.
# Step 2.2.10. Using the manual multichannel pipettor, and being careful not to introduce bubbles into the plate, the wells from the assay plate in step 2.2.9 were mixed by aspirating and dispensing 35 μL of the 75 μL in each well five times. The tips on multichannel pipettor were changed for each row of wells mixed.
# Step 2.2.11. The plate was covered with a polystyrene plate lid, and the plate from step 2.2.10 containing NS3 protease and sample compounds was pre-incubated 10 minutes at room temperature.
# While the plate from step 2.2.11 was pre-incubating, the RETS1 substrate was diluted in a 15 mL polypropylene centrifuge tube. The RETS1 substrate was diluted to 8 μM (1:80.75 of 646 μM stock−65 μL 646 μM stock+5184 μL assay buffer).
# After the plate in step 2.2.11 was done pre-incubating, and using the manual multichannel, 25 μL of substrate was added to all wells on the plate. The contents of the wells were quickly mixed, as in step 2.2.10, but mixing 65 μL of the 100 μL in the wells.
# The plate was read in kinetic mode on the Molecular Devices SpectraMax Gemini XS plate reader. Reader settings: Read time: 30 minutes, Interval: 36 seconds, Reads: 51, Excitation λ: 335 nm, Emission λ: 495 nm, cutoff: 475 nm, Automix: off, Calibrate: once, PMT: high, Reads/well: 6, Vmax pts: 21 or 28/51 depending on length of linearity of reaction.
# IC50s were determined using a four parameter curve fit equation, and converted to Ki's using the following Km's:
# where Ki=IC50/(1+[S]/Km))
# T1 sequence (P27958 1027-1657): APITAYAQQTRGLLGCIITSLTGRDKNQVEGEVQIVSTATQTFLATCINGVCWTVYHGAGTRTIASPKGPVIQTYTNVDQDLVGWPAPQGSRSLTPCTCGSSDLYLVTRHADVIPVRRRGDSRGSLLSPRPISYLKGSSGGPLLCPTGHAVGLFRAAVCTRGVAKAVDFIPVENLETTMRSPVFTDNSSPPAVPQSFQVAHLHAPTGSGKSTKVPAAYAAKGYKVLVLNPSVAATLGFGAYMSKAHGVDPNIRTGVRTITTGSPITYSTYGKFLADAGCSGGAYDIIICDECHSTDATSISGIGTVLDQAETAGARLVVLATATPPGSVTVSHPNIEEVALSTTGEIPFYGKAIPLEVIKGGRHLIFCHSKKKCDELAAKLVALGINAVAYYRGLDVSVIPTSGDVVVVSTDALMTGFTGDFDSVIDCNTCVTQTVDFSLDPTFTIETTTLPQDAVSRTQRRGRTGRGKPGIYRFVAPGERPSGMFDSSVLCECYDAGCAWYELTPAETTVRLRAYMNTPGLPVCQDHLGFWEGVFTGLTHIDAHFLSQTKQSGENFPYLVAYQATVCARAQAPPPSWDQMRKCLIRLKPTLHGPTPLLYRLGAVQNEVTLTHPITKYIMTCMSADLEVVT
row,SMILES,IC50 [µM]
1,"CC(C)[C@@H](N)C(=O)N[C@H]1CCCCC/C=C\[C@@H]2C[C@@]2(C(=O)O)NC(=O)[C@@H]2C[C@@H](OC(=O)N3CCc4ccccc4C3)CN2C1=O [AR00298990, (1S,4R,6S,14S,18R)-14-(2-Amino-3-methyl-butyrylamino)-18-(3,4-dihydro-1H-isoquinoline-2-carbonyloxy)-2,15-dioxo-3,16-diaza-tricyclo[14.3.0.0^4,6]nonadec-7-ene-4-carboxylic acid]",< 10
2,"CC(C)[C@@H](NC(=O)OC(C)(C)C)C(=O)N[C@H]1CCCCC/C=C\[C@@H]2C[C@@]2(C(=O)O)NC(=O)[C@@H]2C[C@@H](OC(=O)N3CCc4ccccc4C3)CN2C1=O [AR00298989, (1S,4R,6S,14S,18R)-14-(2-tert-Butoxycarbonylamino-3-methyl-butyrylamino)-18-(3,4-dihydro-1H-isoquinoline-2-carbonyloxy)-2,15-dioxo-3,16-diaza-tricyclo[14.3.0.0^4,6]nonadec-7-ene-4-carboxylic acid]",< 10

# Same assay, conditions: read-out: NS3-NS4A IC50
row,SMILES,IC50 [µM]
1,"CC(C)(C)OC(=O)N[C@H]1CCCCC/C=C\[C@@H]2C[C@@]2(C(=O)O)NC(=O)[C@@H]2C[C@@H](OC(=O)N3CCc4nc(N)sc4C3)CN2C1=O [AR00304154, (1S,4R,6S,14S,18R)-18-(2-Amino-6,7-dihydro-4H-thiazolo[5,4-c]pyridine-5-carbonyloxy)-14-tert-butoxycarbonylamino-2,15-dioxo-3,16-diaza-tricyclo[14.3.0.0^4,6]nonadec-7-ene-4-carboxylic acid]",< 10
2,"CC(C)(C)OC(=O)N[C@H]1CCCCC/C=C\[C@H]2C[C@]2(C(=O)O)NC(=O)[C@@H]2C[C@@H](OC(=O)N3CCc4ccccc4C3)CN2C1=O [AR00220122, (1S,4S,6R,14S,18R)-14-tert-Butoxycarbonylamino-18-(3,4-dihydro-1H-isoquinoline-2-carbonyloxy)-2,15-dioxo-3,16-diaza-tricyclo[14.3.0.0^4,6]nonadec-7-ene-4-carboxylic acid]",< 50
3,"CC(=O)Nc1nc2c(s1)CN(C(=O)O[C@@H]1C[C@H]3C(=O)N[C@]4(C(=O)O)C[C@H]4/C=C\CCCCC[C@H](NC(=O)OC(C)(C)C)C(=O)N3C1)CC2 [AR00314685, (1S,4R,6S,14S,18R)-18-(2-Acetylamino-6,7-dihydro-4H-thiazolo[5,4-c]pyridine-5-carbonyloxy)-14-tert-butoxycarbonylamino-2,15-dioxo-3,16-diaza-tricyclo[14.3.0.0^4,6]nonadec-7-ene-4-carboxylic acid]",< 50
4,"CC(C)C(=O)N[C@H]1CCCCC/C=C\[C@@H]2C[C@@]2(C(=O)O)NC(=O)[C@@H]2C[C@@H](OC(=O)N3CCc4ccccc4C3)CN2C1=O [AR00248688, (1S,4R,6S,14S,18R)-18-(3,4-Dihydro-1H-isoquinoline-2-carbonyloxy)-14-isobutyrylamino-2,15-dioxo-3,16-diaza-tricyclo[14.3.0.0^4,6]nonadec-7-ene-4-carboxylic acid]",< 10
5,"N[C@H]1CCCCC/C=C\[C@@H]2C[C@@]2(C(=O)NS(=O)(=O)C2CC2)NC(=O)[C@@H]2C[C@@H](OC(=O)N3Cc4cccc(F)c4C3)CN2C1=O [AR00424874, (1S,4R,6S,14S,18R)-4-Fluoro-1,3-dihydro-isoindole-2-carboxylic acid 14-amino-4-cyclopropanesulfonylaminocarbonyl-2,15-dioxo-3,16-diaza-tricyclo[14.3.0.0^4,6]nonadec-7-en-18-yl ester, HC1 salt]",< 0.1
6,"O=C(NC1CCOC1)N[C@H]1CCCCC/C=C\[C@@H]2C[C@@]2(C(=O)O)NC(=O)[C@@H]2C[C@@H](OC(=O)N3CCc4ccccc4C3)CN2C1=O (stereo partly drawn) [AR00320221, (1S,4R,6S,14S,18R)-18-(3,4-Dihydro-1H-isoquinoline-2-carbonyloxy)-2,15-dioxo-14-[3-(tetrahydro-furan-3-yl)-ureido]-3,16-diaza-tricyclo[14.3.0.0^4,6]nonadec-7-ene-4-carboxylic acid]",< 1
7,"CC(C)(C)OC(=O)N[C@H]1CCCCC/C=C\[C@@H]2C[C@@]2(C(=O)O)NC(=O)[C@@H]2C[C@@H](NC(=O)N3CCc4ccccc4C3)CN2C1=O [AR00287262, (1S,4R,6S,14S,18R)-14-tert-butoxycarbonylamino-18-[(3,4-dihydro-1H-isoquinoline-2-carbonyl)-amino]-2,15-dioxo-3,16-diaza-tricyclo[14.3.0.0^4,6]nonadec-7-ene-4-carboxylic acid]",< 10
8,"CC(C)(C)OC(=O)N[C@H]1CCCCC/C=C\[C@@H]2C[C@@]2(C(=O)O)NC(=O)[C@@H]2C[C@@H](OC(=O)N3CCc4ccc(Cl)cc4C3)CN2C1=O [AR00304062, (1S,4R,6S,14S,18R)-14-tert-Butoxycarbonylamino-18-(7-chloro-3,4-dihydro-1H-isoquinoline-2-carbonyloxy)-2,15-dioxo-3,16-diaza-tricyclo[14.3.0.0^4,6]nonadec-7-ene-4-carboxylic acid]",< 10
9,"O=C(N[C@H]1CCCCC/C=C\[C@@H]2C[C@@]2(C(=O)O)NC(=O)[C@@H]2C[C@@H](OC(=O)N3CCc4ccccc4C3)CN2C1=O)C1CCCC1 [AR00248689, (1S,4R,6S,14S,18R)-14-(Cyclopentanecarbonyl-amino)-18-(3,4-dihydro-1H-isoquinoline-2-carbonyloxy)-2,15-dioxo-3,16-diaza-tricyclo[14.3.0.0^4,6]nonadec-7-ene-4-carboxylic acid]",< 1
10,"COc1ccc2c(c1)CCN(C(=O)O[C@@H]1C[C@H]3C(=O)N[C@]4(C(=O)O)C[C@H]4/C=C\CCCCC[C@H](NC(=O)OC(C)(C)C)C(=O)N3C1)C2CN1CCOCC1 (stereo partly drawn) [AR00333276, (1S,4R,6S,14S,18R)-14-tert-Butoxycarbonylamino-18-(6-methoxy-1-morpholin-4-ylmethyl-3,4-dihydro-1H-isoquinoline-2-carbonyloxy)-2,15-dioxo-3,16-diaza-tricyclo[14.3.0.0^4,6]nonadec-7-ene-4-carboxylic acid]",< 10
11,"CN(C)CCOc1ccc2c(c1)CN(C(=O)O[C@@H]1C[C@H]3C(=O)N[C@]4(C(=O)O)C[C@H]4/C=C\CCCCC[C@H](NC(=O)OC(C)(C)C)C(=O)N3C1)C2 [AR00371947, (1S,4R,6S,14S,18R)-14-tert-Butoxycarbonylamino-18-[5-(2-dimethylamino-ethoxy)-1,3-dihydro-isoindole-2-carbonyloxy]-2,15-dioxo-3,16-diaza-tricyclo[14.3.0.0^4,6]nonadec-7-ene-4-carboxylic acid]",< 1
12,"CC(C)(C)OC(=O)N[C@H]1CCCCC/C=C\[C@@H]2C[C@@]2(C(=O)O)NC(=O)[C@@H]2C[C@@H](OC(=O)N3CCc4ccccc4C3CN3CCOCC3)CN2C1=O (stereo partly drawn) [AR00333225, (1S,4R,6S,14S,18R)-14-tert-Butoxycarbonylamino-18-(1-morpholin-4-ylmethyl-3,4-dihydro-1H-isoquinoline-2-carbonyloxy)-2,15-dioxo-3,16-diaza-tricyclo[14.3.0.0^4,6]nonadec-7-ene-4-carboxylic acid]",< 10
13,"CC(C)(C)OC(=O)N[C@H]1CCCCC/C=C\[C@@H]2C[C@@]2(C(=O)O)NC(=O)[C@@H]2C[C@@H](OC(=O)N3CCc4cc(C(F)(F)F)ccc4C3)CN2C1=O [AR00294383, (1S,4R,6S,14S,18R)-14-tert-Butoxycarbonylamino-2,15-dioxo-18-(6-trifluoromethyl-3,4-dihydro-1H-isoquinoline-2-carbonyloxy)-3,16-diaza-tricyclo[14.3.0.0^4,6]nonadec-7-ene-4-carboxylic acid]",< 10
